Laboratory results taken from the NIST ThermoML archive (doi:10.1016/j.tca.2016.05.001).
“And” between values parts separate entries of the source, which are not always exact repeats. Equal entries are not always repeated. ± gives the expanded uncertainty stated by the source.

What was measured:
[1] = Molar enthalpy of transition or fusion; conditions: Crystal; DSC
[2] = for Triple point temperature: DSC

## c1ccc2nc3ccccc3nc2c1 [phenazine]
[1]
  Molar enthalpy of transition or fusion: 4.61 ± 0.263 kcal/mol
[2]; 291.8 K, Crystal, Calculated from knudsen effusion weight loss
  vapor or sublimation pressure: 9.4e-07 ± 2.1e-07 kPa
[2]; 293.5 K, Crystal, Calculated from knudsen effusion weight loss
  vapor or sublimation pressure: 1.3e-06 ± 3e-07 kPa
[2]; 296.3 K, Crystal, Calculated from knudsen effusion weight loss
  vapor or sublimation pressure: 1.6e-06 ± 3e-07 kPa
[2]; 300.3 K, Crystal, Calculated from knudsen effusion weight loss
  vapor or sublimation pressure: 2.9e-06 ± 6e-07 kPa
[2]; 303.5 K, Crystal, Calculated from knudsen effusion weight loss
  vapor or sublimation pressure: 4.7e-06 ± 1e-06 kPa
[2]; 306.3 K, Crystal, Calculated from knudsen effusion weight loss
  vapor or sublimation pressure: 6.1e-06 ± 1.3e-06 kPa
[2]; 310.3 K, Crystal, Calculated from knudsen effusion weight loss
  vapor or sublimation pressure: 1.1e-05 ± 2e-06 kPa
[2]; 313.3 K, Crystal, Calculated from knudsen effusion weight loss
  vapor or sublimation pressure: 1.81e-05 ± 3.8e-06 kPa
[2]; 316.2 K, Crystal, Calculated from knudsen effusion weight loss
  vapor or sublimation pressure: 2.24e-05 ± 4.9e-06 kPa and 2.6e-05 ± 6e-06 kPa
[2]; 320.1 K, Crystal, Calculated from knudsen effusion weight loss
  vapor or sublimation pressure: 3.8e-05 ± 8e-06 kPa and 4.6e-05 ± 1e-05 kPa
[2]; 323.1 K, Crystal, Calculated from knudsen effusion weight loss
  vapor or sublimation pressure: 6.6e-05 ± 1.3e-05 kPa
[2]; 323.6 K, Crystal, Calculated from knudsen effusion weight loss
  vapor or sublimation pressure: 6.5e-05 ± 1.3e-05 kPa
[2]; 326.1 K, Crystal, Calculated from knudsen effusion weight loss
  vapor or sublimation pressure: 8.9e-05 ± 1.9e-05 kPa
[2]; 330 K, Crystal, Calculated from knudsen effusion weight loss
  vapor or sublimation pressure: 0.00015 ± 3e-05 kPa
[2]; 332.9 K, Crystal, Calculated from knudsen effusion weight loss
  vapor or sublimation pressure: 0.000196 ± 4.1e-05 kPa
[2]; 335.9 K, Crystal, Calculated from knudsen effusion weight loss
  vapor or sublimation pressure: 0.000264 ± 5.5e-05 kPa
[2]; 339.8 K, Crystal, Calculated from knudsen effusion weight loss
  vapor or sublimation pressure: 0.0004 ± 8e-05 kPa
[2]; 342.8 K, Crystal, Calculated from knudsen effusion weight loss
  vapor or sublimation pressure: 0.00056 ± 0.00012 kPa
[2]; 450.3 K, Liquid, Rate of evaporation
  vapor or sublimation pressure: 2.018 ± 0.82 kPa
[2]; 451.4 K, Liquid, Rate of evaporation
  vapor or sublimation pressure: 2.101 ± 0.85 kPa
[2]; 452.5 K, Liquid, Rate of evaporation
  vapor or sublimation pressure: 2.186 ± 0.89 kPa
[2]; 454.8 K, Liquid, Rate of evaporation
  vapor or sublimation pressure: 2.441 ± 0.99 kPa
[2]; 456.7 K, Liquid, Rate of evaporation
  vapor or sublimation pressure: 2.618 ± 1.1 kPa
[2]; 458.9 K, Liquid, Rate of evaporation
  vapor or sublimation pressure: 2.836 ± 1.2 kPa
[2]; 460.1 K, Liquid, Rate of evaporation
  vapor or sublimation pressure: 3.041 ± 1.2 kPa
[2]; 462.6 K, Liquid, Rate of evaporation
  vapor or sublimation pressure: 3.328 ± 1.4 kPa
[2]; 464.2 K, Liquid, Rate of evaporation
  vapor or sublimation pressure: 3.533 ± 1.4 kPa
[2]; 466.7 K, Liquid, Rate of evaporation
  vapor or sublimation pressure: 3.944 ± 1.6 kPa
[2]; 469.1 K, Liquid, Rate of evaporation
  vapor or sublimation pressure: 4.316 ± 1.8 kPa
[2]; Crystal
  Triple point temperature: 446.4 ± 2.1 K

## c1cnc2ccc3ncccc3c2c1 [4,7-phenanthroline]
[1]
  Molar enthalpy of transition or fusion: 5.35 ± 0.502 kcal/mol
[2]; 336.8 K, Crystal, Torsion effusion method
  vapor or sublimation pressure: 2.8e-05 ± 9e-06 kPa
[2]; 337.1 K, Crystal, Torsion effusion method
  vapor or sublimation pressure: 2.8e-05 ± 1e-05 kPa
[2]; 339.5 K, Crystal, Torsion effusion method
  vapor or sublimation pressure: 3.8e-05 ± 1.1e-05 kPa
[2]; 340 K, Crystal, Torsion effusion method
  vapor or sublimation pressure: 3.8e-05 ± 1.3e-05 kPa
[2]; 340.1 K, Crystal, Torsion effusion method
  vapor or sublimation pressure: 3.8e-05 ± 1.3e-05 kPa
[2]; 341 K, Crystal, Torsion effusion method
  vapor or sublimation pressure: 4.7e-05 ± 1.3e-05 kPa
[2]; 341.9 K, Crystal, Torsion effusion method
  vapor or sublimation pressure: 4.7e-05 ± 1.8e-05 kPa
[2]; 342.8 K, Crystal, Torsion effusion method
  vapor or sublimation pressure: 5.7e-05 ± 2e-05 kPa
[2]; 342.9 K, Crystal, Torsion effusion method
  vapor or sublimation pressure: 5.7e-05 ± 2e-05 kPa
[2]; 343.3 K, Crystal, Torsion effusion method
  vapor or sublimation pressure: 5.7e-05 ± 1.9e-05 kPa
[2]; 346 K, Crystal, Torsion effusion method
  vapor or sublimation pressure: 8.5e-05 ± 2.9e-05 kPa
[2]; 346.6 K, Crystal, Torsion effusion method
  vapor or sublimation pressure: 9.4e-05 ± 2.8e-05 kPa
[2]; 346.7 K, Crystal, Torsion effusion method
  vapor or sublimation pressure: 9.4e-05 ± 2.8e-05 kPa
[2]; 348.3 K, Crystal, Torsion effusion method
  vapor or sublimation pressure: 0.000114 ± 3.7e-05 kPa
[2]; 349 K, Crystal, Torsion effusion method
  vapor or sublimation pressure: 0.000114 ± 3.8e-05 kPa
[2]; 349.4 K, Crystal, Torsion effusion method
  vapor or sublimation pressure: 0.000133 ± 4.1e-05 kPa
[2]; 350.6 K, Crystal, Torsion effusion method
  vapor or sublimation pressure: 0.000151 ± 4.6e-05 kPa
[2]; 350.8 K, Crystal, Torsion effusion method
  vapor or sublimation pressure: 0.000133 ± 4.2e-05 kPa
[2]; 351.7 K, Crystal, Torsion effusion method
  vapor or sublimation pressure: 0.00017 ± 4.6e-05 kPa
[2]; 351.8 K, Crystal, Torsion effusion method
  vapor or sublimation pressure: 0.00017 ± 4.6e-05 kPa
[2]; 352.7 K, Crystal, Torsion effusion method
  vapor or sublimation pressure: 0.00019 ± 5.3e-05 kPa
[2]; 352.8 K, Crystal, Torsion effusion method
  vapor or sublimation pressure: 0.00017 ± 5.8e-05 kPa
[2]; 354.4 K, Crystal, Torsion effusion method
  vapor or sublimation pressure: 0.000208 ± 6.5e-05 kPa
[2]; 354.7 K, Crystal, Torsion effusion method
  vapor or sublimation pressure: 0.000219 ± 6.6e-05 kPa
[2]; 354.8 K, Crystal, Torsion effusion method
  vapor or sublimation pressure: 0.000228 ± 6.7e-05 kPa
[2]; 355.5 K, Crystal, Torsion effusion method
  vapor or sublimation pressure: 0.000264 ± 7.8e-05 kPa
[2]; 355.7 K, Crystal, Torsion effusion method
  vapor or sublimation pressure: 0.000247 ± 7.6e-05 kPa
[2]; 355.8 K, Crystal, Torsion effusion method
  vapor or sublimation pressure: 0.000247 ± 7.6e-05 kPa
[2]; 356.4 K, Crystal, Torsion effusion method
  vapor or sublimation pressure: 0.000264 ± 8.3e-05 kPa
[2]; 358.2 K, Crystal, Torsion effusion method
  vapor or sublimation pressure: 0.00034 ± 0.00011 kPa and 0.000323 ± 0.0001 kPa
[2]; 358.7 K, Crystal, Torsion effusion method
  vapor or sublimation pressure: 0.000361 ± 0.00012 kPa
[2]; 359.4 K, Crystal, Torsion effusion method
  vapor or sublimation pressure: 0.000379 ± 0.00011 kPa
[2]; 360.2 K, Crystal, Torsion effusion method
  vapor or sublimation pressure: 0.000415 ± 0.00012 kPa
[2]; 360.5 K, Crystal, Torsion effusion method
  vapor or sublimation pressure: 0.000436 ± 0.00012 kPa and 0.000415 ± 0.00012 kPa
[2]; 361.4 K, Crystal, Torsion effusion method
  vapor or sublimation pressure: 0.000512 ± 0.00014 kPa
[2]; 362.2 K, Crystal, Torsion effusion method
  vapor or sublimation pressure: 0.000472 ± 0.00016 kPa
[2]; 363.1 K, Crystal, Torsion effusion method
  vapor or sublimation pressure: 0.000533 ± 0.00017 kPa
[2]; 363.2 K, Crystal, Torsion effusion method
  vapor or sublimation pressure: 0.000571 ± 0.00018 kPa
[2]; 364.1 K, Crystal, Torsion effusion method
  vapor or sublimation pressure: 0.000625 ± 0.00018 kPa
[2]; 366.2 K, Crystal, Torsion effusion method
  vapor or sublimation pressure: 0.000819 ± 0.00022 kPa and 0.000741 ± 0.00021 kPa
[2]; 368.4 K, Crystal, Torsion effusion method
  vapor or sublimation pressure: 0.000951 ± 0.00023 kPa
[2]; 368.7 K, Crystal, Torsion effusion method
  vapor or sublimation pressure: 0.00102 ± 0.00026 kPa
[2]; 369.6 K, Crystal, Torsion effusion method
  vapor or sublimation pressure: 0.001041 ± 0.00025 kPa
[2]; 463.1 K, Liquid, Rate of evaporation
  vapor or sublimation pressure: 1.495 ± 0.61 kPa
[2]; 468.1 K, Liquid, Rate of evaporation
  vapor or sublimation pressure: 1.882 ± 0.77 kPa
[2]; 473.1 K, Liquid, Rate of evaporation
  vapor or sublimation pressure: 2.253 ± 0.92 kPa
[2]; 477.9 K, Liquid, Rate of evaporation
  vapor or sublimation pressure: 2.67 ± 1.1 kPa
[2]; 481.9 K, Liquid, Rate of evaporation
  vapor or sublimation pressure: 3.103 ± 1.3 kPa
[2]; 486.5 K, Liquid, Rate of evaporation
  vapor or sublimation pressure: 4.064 ± 1.7 kPa
[2]; 492.1 K, Liquid, Rate of evaporation
  vapor or sublimation pressure: 5.014 ± 2 kPa
[2]; 496.2 K, Liquid, Rate of evaporation
  vapor or sublimation pressure: 6.311 ± 2.6 kPa
[2]; Crystal
  Triple point temperature: 444.1 ± 2.1 K
